Four compounds from paper PMC4113814, “Bioactive Cembrane Derivatives from the Indian Ocean Soft Coral, Sinularia kavarattiensis” (Marine Drugs, 2014) can be followed below.

In brackets after ≈: the same amount, converted by molar mass. Entries after “also recorded” stand apart in the source; their conditions may differ. Like-named read-outs stand apart in the source and are kept apart here.

Test [1] concerns IL-18. Description: IL-18 release in supernatants of LPS-treated primary microglial cells (ELISA). It counts as cell-based, Wistar rats. The conditions noted are these: 72 h; for IL-18 release: LPS-treated; for IC50: Rattus norvegicus, inhibition of LPS-induced cytokine release, read-out: IL-18 IC50. How it is done: Primary microglial cell cultures were prepared from brains of newborn Wistar rats. Ethics approval for the experiments was granted by the EBIOTEC Review Board (Valter Lombardi, Iván Carrera and Lucía Fernández-Novoa; Project Identification Code: Sinularia Project October 2013; approved 30 October 2013). The neocortex of one-day-old postnatal rats was aseptically dissected out, and the meninges and blood vessels were carefully removed. Following cutting in a medium containing 20% horse serum, the suspension was filtered through a […] and transferred as a single cell suspension to culture dishes, using 5.0 mL of medium per dish. The cultures were incubated at 37 °C in an atmosphere containing 5% CO2. The culture medium consisted of Minimum Essential Medium Eagle, supplemented with L-glutamine, amino acids, vitamins, penicillin, gentamicin, sodium bicarbonate and 20% heat-inactivated horse serum. The medium was changed twice a week. After 1 week, the concentration of horse serum was reduced to 10%. After sixteen days in culture, cells were treated with 1 μg/mL of lipopolysaccharide (LPS). […] Positive controls were treated only with LPS, while negative controls were treated with complete medium. After 72 h of incubation, cells were counted, and 2.5 mL of the supernatants were collected from each well and frozen at −40 °C for cytokine analyses. All experiments were carried out twice.
The supernatants obtained from cell cultures were analyzed for TNF-α, IL-1β, IL-4, IL-6, IL-8, IL-10 and IL-18 using commercially available ELISA kits following the manufacturers’ instructions. All samples were assayed in duplicate, and equivocal results were repeated. The cytokine concentration was calculated from a standard curve of the corresponding recombinant cytokine.
The cytotoxicity of the compounds was measured by the colorimetric methyl thiazol tetrazolium (MTT) assay and scored as a percentage of the absorbance reduction of treated cultures versus untreated control cultures. Primary microglial cell cultures were seeded into 96-well microplates at 10^4 cells per well and allowed to grow for 24 h. […] […] Different concentrations of the compounds were added to each well, and Tamoxifen was used as a positive control, with concentrations ranging from 50 to 1.56 μg/mL. Plates were incubated at 37 °C for 72 h under 5% CO2 atmosphere. Then, the 50 μL of MTT-PBS solution in culture medium were added to each well. The plates were further incubated for 4 h under the same conditions. The medium was then removed and replaced with 200 μL of DMSO to solubilize the MTT formazan product. The solutions were shaken for 20 min, and the absorbance was measured at 570 nm. […] Each value represents the mean of triplicate determinations. The IC50 values were calculated from the compound concentration-response curves.
A general note: An ELISA detects its analyte on a solid surface through an enzyme-linked reagent.

In test [2] the test system is BHK-CHIKV-NCT cells. Description: Cell-IQ live cell imaging, cytotoxicity by cell classification (viable cells). To be noted: 100 μM, 48 h, 3000 cells/well.
In test [3] the test system is cytokine release. Nature of the test: Inhibition of cytokine release in primary microglial cells, whole cytokine panel (summary statements). The format is cell-based, Wistar rats. The conditions noted are these: Rattus norvegicus. As to the method:
Primary microglial cell cultures were prepared from brains of newborn Wistar rats. Ethics approval for the experiments was granted by the EBIOTEC Review Board (Valter Lombardi, Iván Carrera and Lucía Fernández-Novoa; Project Identification Code: Sinularia Project October 2013; approved 30 October 2013). The neocortex of one-day-old postnatal rats was aseptically dissected out, and the meninges and blood vessels were carefully removed. Following cutting in a medium containing 20% horse serum, the suspension was filtered through a […] and transferred as a single cell suspension to culture dishes, using 5.0 mL of medium per dish. […] After 72 h of incubation, cells were counted, and 2.5 mL of the supernatants were collected from each well and frozen at −40 °C for cytokine analyses. […]
The supernatants obtained from cell cultures were analyzed for TNF-α, IL-1β, IL-4, IL-6, IL-8, IL-10 and IL-18 using commercially available ELISA kits following the manufacturers’ instructions. […] The cytokine concentration was calculated from a standard curve of the corresponding recombinant cytokine.
The cytotoxicity of the compounds was measured by the colorimetric methyl thiazol tetrazolium (MTT) assay and scored as a percentage of the absorbance reduction of treated cultures versus untreated control cultures. […] The solutions were shaken for 20 min, and the absorbance was measured at 570 nm. […]

Test [4] deals with BHK-CHIKV-NCT cells. Nature of the test: Cytotoxicity assay by ATP quantitation (CellTiter GLO). To be noted: 100 μM, cell concentration lowered to 3000 cells/well. (ATP-based viability assays read luminescence as a measure of living cells.)
Test [5] deals with primary microglial cells. Description: Microglial morphology cell count (ramified vs amoeboid) in LPS-treated cultures. The format is cell-based, Wistar rats. To be noted: 2.5 μg/mL (7.2 μM) and 5.0 μg/mL (14.4 μM), 72 h. How it is done:
Primary microglial cell cultures were prepared from brains of newborn Wistar rats. Ethics approval for the experiments was granted by the EBIOTEC Review Board (Valter Lombardi, Iván Carrera and Lucía Fernández-Novoa; Project Identification Code: Sinularia Project October 2013; approved 30 October 2013). The neocortex of one-day-old postnatal rats was aseptically dissected out, and the meninges and blood vessels were carefully removed. Following cutting in a medium containing 20% horse serum, the suspension was filtered through a […] and transferred as a single cell suspension to culture dishes, using 5.0 mL of medium per dish. The cultures were incubated at 37 °C in an atmosphere containing 5% CO2. The culture medium consisted of Minimum Essential Medium Eagle, supplemented with L-glutamine, amino acids, vitamins, penicillin, gentamicin, sodium bicarbonate and 20% heat-inactivated horse serum. The medium was changed twice a week. After 1 week, the concentration of horse serum was reduced to 10%. After sixteen days in culture, cells were treated with 1 μg/mL of lipopolysaccharide (LPS). […] After 72 h of incubation, cells were counted, and 2.5 mL of the supernatants were collected from each well and frozen at −40 °C for cytokine analyses. […]

Test [6] concerns CHIKV replicon. To be noted: summary statement.

Usually IC50 stands for the concentration at which inhibition is half-maximal. Regarding `C=C(C)[C@@H]1CC(=O)[C@H]2[C@H](C1)[C@@H]1C(=O)O[C@@H]3C[C@@]4(C)O[C@H]2C(=O)[C@@H]4[C@H]13` [Compound 6, ineleganolide], the IL-18 release in test [1] (C1: 1.0 μg/mL), in test [1] (C2: 2.5 μg/mL) and in test [1] (C3: 5.0 μg/mL) was 312 ± 8.2 pg/mL each time. In addition, the IC50 in test [1] is > 12.5 µg/mL.
Turning to `C=C(C)C1CCC23OC2C(CC2(C)CC(=O)C(CC(=O)C1)O2)OC3=O` (stereo not shown) [Compound 3, scabrolide D], the IL-18 release is listed as 312 ± 8.2 pg/mL in test [1] (C1: 1.0 μg/mL), 321 ± 7.8 pg/mL in test [1] (C2: 2.5 μg/mL) and 318 ± 7.6 pg/mL in test [1] (C3: 5.0 μg/mL). The IC50 in test [1] was > 12.5 µg/mL.
For the compound `C=C(C)[C@@H]1C/C=C2\C(=O)O[C@@H](C[C@]3(C)CC(=O)[C@@H](CC(=O)C1)O3)[C@@H]2O` [Compound 2, sinuleptolide], the “decrease in the amount of viable cells (living or dividing)” value in test [2] was > 80%. Further, the IL-18 release amounted to 326 ± 4.9 pg/mL in test [1] (C1: 1.0 μg/mL), 187 ± 14 pg/mL in test [1] (C2: 2.5 μg/mL) and 155 ± 11 pg/mL in test [1] (C3: 5.0 μg/mL). Further, the IC50 in test [1] was 2.9 µg/mL (≈ 8.32 µM); in test [3] (converted from μg/mL, range over all cytokines), 1.4 to 8.3 µM; in test [3] (range over IL-1β, IL-6, IL-8, IL-18, TNF-α, IL-4, IL-10, read-out: IC50-values for the inhibition of cytokine release, range over cytokines) it was 0.5 to 2.9 µg/mL. Moreover, the “reduction of ATP level” value in test [4] is given as 44%. Further, in test [5], the “effect on ramified (RM) and amoeboid (AM) microglial cell density” value is “significant RM and AM mean differences; also recorded: significantly reduce the number of activated amoeboid cells”. The “overall activity in the CHIKV replicon model” value in test [6] is “moderate inhibition”.
On to `C=C(C)[C@@H]1C/C=C2\C(=O)O[C@@H](C[C@]3(C)CC(=O)[C@H](CC(=O)C1)O3)[C@@H]2O` [Compound 1, 5-epi-sinuleptolide], for which, in test [2], the “decrease in the amount of viable cells (living or dividing)” value was > 80%. Moreover, the IL-18 release in test [1] (C1: 1.0 μg/mL) stood at 319 ± 8.1 pg/mL; in test [1] (C2: 2.5 μg/mL) it was 318 ± 7.5 pg/mL; in test [1] (C3: 5.0 μg/mL), 315 ± 8.1 pg/mL. Also, the IC50 in test [1] was > 12.5 µg/mL. Further, in test [4], the “reduction of ATP level” value is 39%. Further, the “overall activity in the CHIKV replicon model” value in test [6] is reported as “moderate inhibition”.
